Data taken from BindingDB's records for doi:10.7270/Q2QJ7FRJ (Nmmlsc, 2009).

What follows are compounds tested against Cell division control protein 42 homolog (Homo sapiens, UniProt P60953) (assay: wildtype Cdc42 GTP-binding inhibitors, SAR follow-up, biochemical, pyrazoline analogs, multiplex bead flow cytometry, Ki (AID 2019)). Conditions: not given.
Chain of Cell division control protein 42 homolog (P60953 whole entry): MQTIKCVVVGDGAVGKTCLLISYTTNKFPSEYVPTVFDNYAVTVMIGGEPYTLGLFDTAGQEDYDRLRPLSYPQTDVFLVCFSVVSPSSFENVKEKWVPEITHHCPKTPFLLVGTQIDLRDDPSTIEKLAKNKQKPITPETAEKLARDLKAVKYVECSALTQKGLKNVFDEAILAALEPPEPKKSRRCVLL

EC50 [µM]	Compound
2.79	COc1ccc(C2CC(c3ccccc3F)=NN2c2ccc(S(N)(=O)=O)cc2)cc1 (stereo not drawn) [UNM-0000306110]
3.36	COc1ccc(C2CC(c3ccccc3Br)=NN2c2ccc(S(N)(=O)=O)cc2)cc1 (stereo not drawn) [UNM-0000306112]
2.76	NS(=O)(=O)c1ccc(N2N=C(c3ccccc3)CC2c2ccc(Cl)cc2)cc1 (stereo not drawn) [4-[3-(4-chlorophenyl)-5-phenyl-3,4-dihydropyrazol-2-yl]benzenesulfonamide]

Same assay, conditions: inactive by the depositor's call

EC50 [µM]	Compound
30	CN(C)c1ccc(C2C[C-](c3ccccc3)N=[N+]2c2ccc([N+](=O)[O-])cc2)cc1 (stereo not drawn)
30	Cc1cccc(N2N=C(c3ccccc3)CC2c2ccccc2)c1 (stereo not drawn) [UNM-0000305835]
30	COc1ccc(C2CC(c3ccccc3)=NN2c2cccc(S(N)(=O)=O)c2)cc1 (stereo not drawn) [3-[3-(4-methoxyphenyl)-5-phenyl-3,4-dihydropyrazol-2-yl]benzenesulfonamide]
30	CN(C)c1ccc(C2CC(c3ccc(F)cc3)=NN2c2ccccc2)cc1 (stereo not drawn) [UNM-0000305866]
30	COc1ccc(C2CC(c3ccccc3)=NN2c2ccc(C(=O)O)cc2)cc1 (stereo not drawn) [UNM-0000306085]
